The text below walks through data of PMC4595045 (Journal of medicinal chemistry, 2013).

In experiment [1] the target is T1, CaV1.3 LTCCs (Rattus norvegicus, UniProt P27732). The settings on record: more potent than 6; ref previous study; cited from earlier work.
Experiment [2] concerns the target T1, CaV1.3 LTCCs. Kind of experiment: FLIPR Fluo-8 calcium influx assay, HEK293 cells stably expressing CaV1.3. Type of experiment: cell-based. To be noted: for Selectivity, ratio of the IC50 values (CaV1.2/CaV1.3): CaV1.3 over CaV1.2; for binding to CaV1.3 LTCCs (in words): bulky bicyclic ring analogues; for binding affinity for CaV1.3 LTCCs (in words): even at 100 µM.

The next experiment concerns the target CaV1.2 LTCCs (Oryctolagus cuniculus, UniProt P15381). Kind of experiment: FLIPR Fluo-8 calcium influx assay, HEK293 cells stably expressing CaV1.2. The class given is cell-based, rabbit. To be noted: for binding to CaV1.2 LTCCs (in words): bulky bicyclic ring analogues; for binding affinity for CaV1.2 LTCCs (in words): even at 100 µM.

Where only a bound is given, the exact number is not on record here.

T1 sequence (P27732 whole entry): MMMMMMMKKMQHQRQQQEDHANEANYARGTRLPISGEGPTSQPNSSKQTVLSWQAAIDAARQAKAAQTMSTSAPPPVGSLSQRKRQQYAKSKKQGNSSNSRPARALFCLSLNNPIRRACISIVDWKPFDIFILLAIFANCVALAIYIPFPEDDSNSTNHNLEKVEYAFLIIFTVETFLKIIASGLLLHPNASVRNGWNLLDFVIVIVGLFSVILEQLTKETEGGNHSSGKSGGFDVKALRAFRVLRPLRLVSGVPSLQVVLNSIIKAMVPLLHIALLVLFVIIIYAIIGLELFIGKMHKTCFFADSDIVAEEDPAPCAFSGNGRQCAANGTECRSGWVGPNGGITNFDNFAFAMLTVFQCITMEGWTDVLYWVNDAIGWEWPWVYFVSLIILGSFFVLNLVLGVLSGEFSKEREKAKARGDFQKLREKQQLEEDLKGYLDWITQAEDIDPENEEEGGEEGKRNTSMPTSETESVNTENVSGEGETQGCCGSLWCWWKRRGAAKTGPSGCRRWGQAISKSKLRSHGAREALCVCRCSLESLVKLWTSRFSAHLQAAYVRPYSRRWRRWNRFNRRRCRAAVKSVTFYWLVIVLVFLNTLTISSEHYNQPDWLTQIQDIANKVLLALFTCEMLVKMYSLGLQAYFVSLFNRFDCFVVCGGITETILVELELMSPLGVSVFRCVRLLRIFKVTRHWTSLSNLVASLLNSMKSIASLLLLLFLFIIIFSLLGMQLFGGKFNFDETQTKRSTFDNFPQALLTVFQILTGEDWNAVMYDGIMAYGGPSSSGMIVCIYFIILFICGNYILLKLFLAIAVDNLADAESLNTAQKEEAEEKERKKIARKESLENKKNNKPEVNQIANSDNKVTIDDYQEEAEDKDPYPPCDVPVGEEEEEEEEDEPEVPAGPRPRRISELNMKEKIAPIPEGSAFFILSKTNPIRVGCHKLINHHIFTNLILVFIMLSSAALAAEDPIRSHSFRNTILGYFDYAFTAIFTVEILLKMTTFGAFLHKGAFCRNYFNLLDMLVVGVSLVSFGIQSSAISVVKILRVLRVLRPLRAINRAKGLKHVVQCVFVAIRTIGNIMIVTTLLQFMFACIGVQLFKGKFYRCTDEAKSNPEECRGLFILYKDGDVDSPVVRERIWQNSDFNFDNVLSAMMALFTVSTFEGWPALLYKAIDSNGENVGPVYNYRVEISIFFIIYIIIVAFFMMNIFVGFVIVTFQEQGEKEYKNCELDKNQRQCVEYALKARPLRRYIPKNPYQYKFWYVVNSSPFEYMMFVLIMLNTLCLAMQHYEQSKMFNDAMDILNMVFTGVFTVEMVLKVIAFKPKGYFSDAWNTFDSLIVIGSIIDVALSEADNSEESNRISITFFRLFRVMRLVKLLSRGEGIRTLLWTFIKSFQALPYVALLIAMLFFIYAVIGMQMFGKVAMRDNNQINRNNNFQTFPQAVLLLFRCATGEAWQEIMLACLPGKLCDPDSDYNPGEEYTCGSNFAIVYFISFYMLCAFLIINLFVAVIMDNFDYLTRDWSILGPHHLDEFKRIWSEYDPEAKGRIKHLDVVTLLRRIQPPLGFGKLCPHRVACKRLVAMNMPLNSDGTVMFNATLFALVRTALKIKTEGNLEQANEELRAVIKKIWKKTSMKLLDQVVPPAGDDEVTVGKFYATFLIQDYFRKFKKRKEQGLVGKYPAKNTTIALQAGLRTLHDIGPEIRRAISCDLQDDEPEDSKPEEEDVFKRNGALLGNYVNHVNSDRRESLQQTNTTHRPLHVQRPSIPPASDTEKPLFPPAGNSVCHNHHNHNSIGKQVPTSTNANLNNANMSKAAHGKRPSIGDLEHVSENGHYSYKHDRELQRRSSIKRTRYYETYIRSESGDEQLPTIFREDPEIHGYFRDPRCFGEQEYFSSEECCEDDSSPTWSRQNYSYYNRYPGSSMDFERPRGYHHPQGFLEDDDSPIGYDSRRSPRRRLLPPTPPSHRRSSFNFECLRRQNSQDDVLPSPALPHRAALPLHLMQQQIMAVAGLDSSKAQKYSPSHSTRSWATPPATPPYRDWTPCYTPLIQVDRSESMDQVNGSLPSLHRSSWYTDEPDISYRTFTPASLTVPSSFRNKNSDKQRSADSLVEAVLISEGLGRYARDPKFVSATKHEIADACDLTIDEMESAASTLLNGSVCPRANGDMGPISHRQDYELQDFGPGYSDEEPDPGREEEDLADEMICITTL
T1 sequence (P54287 whole entry partner): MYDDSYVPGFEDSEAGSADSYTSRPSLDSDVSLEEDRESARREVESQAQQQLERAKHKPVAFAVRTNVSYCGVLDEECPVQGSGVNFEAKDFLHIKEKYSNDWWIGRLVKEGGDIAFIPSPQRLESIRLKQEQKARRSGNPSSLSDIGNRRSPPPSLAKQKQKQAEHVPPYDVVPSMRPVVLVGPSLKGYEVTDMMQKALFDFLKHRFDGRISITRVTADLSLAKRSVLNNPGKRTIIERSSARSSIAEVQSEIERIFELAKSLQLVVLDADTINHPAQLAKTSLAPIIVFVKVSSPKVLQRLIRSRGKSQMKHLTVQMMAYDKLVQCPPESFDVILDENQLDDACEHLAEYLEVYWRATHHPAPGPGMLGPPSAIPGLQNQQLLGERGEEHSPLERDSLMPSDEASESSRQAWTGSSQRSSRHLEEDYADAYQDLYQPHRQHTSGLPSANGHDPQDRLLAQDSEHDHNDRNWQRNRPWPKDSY
T1 sequence (P54290 25-1091 partner): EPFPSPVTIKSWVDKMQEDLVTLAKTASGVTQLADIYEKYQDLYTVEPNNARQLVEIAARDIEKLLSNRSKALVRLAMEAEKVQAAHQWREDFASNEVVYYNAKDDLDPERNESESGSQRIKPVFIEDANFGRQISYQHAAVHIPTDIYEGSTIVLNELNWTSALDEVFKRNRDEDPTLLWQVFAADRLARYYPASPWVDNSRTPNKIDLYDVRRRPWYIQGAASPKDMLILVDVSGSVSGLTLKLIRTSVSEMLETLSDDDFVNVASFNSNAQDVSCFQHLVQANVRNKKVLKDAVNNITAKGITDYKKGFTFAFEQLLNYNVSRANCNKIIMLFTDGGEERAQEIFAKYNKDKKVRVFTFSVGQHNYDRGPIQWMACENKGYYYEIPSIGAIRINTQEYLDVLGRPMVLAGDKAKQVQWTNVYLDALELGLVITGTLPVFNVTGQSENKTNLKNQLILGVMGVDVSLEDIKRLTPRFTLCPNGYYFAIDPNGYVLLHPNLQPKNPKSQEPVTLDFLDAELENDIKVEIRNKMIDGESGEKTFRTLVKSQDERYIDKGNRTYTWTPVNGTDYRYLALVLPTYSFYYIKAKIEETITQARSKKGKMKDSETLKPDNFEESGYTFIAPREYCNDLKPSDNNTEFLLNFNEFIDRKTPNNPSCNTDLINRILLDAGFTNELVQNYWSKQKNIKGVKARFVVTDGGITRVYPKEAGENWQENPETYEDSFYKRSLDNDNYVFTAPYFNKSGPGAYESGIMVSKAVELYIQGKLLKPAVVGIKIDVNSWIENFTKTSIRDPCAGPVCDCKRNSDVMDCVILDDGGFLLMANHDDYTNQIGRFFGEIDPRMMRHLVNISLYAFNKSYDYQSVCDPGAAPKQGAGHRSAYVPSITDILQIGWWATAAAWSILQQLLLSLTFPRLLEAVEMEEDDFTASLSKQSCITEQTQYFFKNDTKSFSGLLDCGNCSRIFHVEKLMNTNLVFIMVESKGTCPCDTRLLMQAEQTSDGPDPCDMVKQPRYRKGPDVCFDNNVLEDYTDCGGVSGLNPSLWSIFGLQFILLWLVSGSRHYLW

As for `O=C1CC(=O)N(C2CC3CCC2C3)C(=O)N1CCc1ccc(Cl)cc1` (mixture of isomers) [Compound 7, N-(4-chlorophenethyl)-N′-(±)-endo-norbornylpyrimidine-2,4,6-(1H,3H,5H)-trione], the “potency toward CaV1.3 LTCC relative to 6” value on CaV1.3 LTCCs [1] was 3 fold.
In the case of `C[C@@H](C1CCCCC1)N1C(=O)CC(=O)N(CCc2ccc(Cl)cc2)C1=O` [Compound 44, (S)-1-(4-Chlorophenethyl)-3-(1-cyclohexylethyl)pyrimidine-2,4,6(1H,3H,5H)-trione], on CaV1.3 LTCCs [2], the “Selectivity, ratio of the IC50 values (CaV1.2/CaV1.3)” value (“Selectivity, ratio of the IC50 values” for short) is >12.
With `C[C@H](C1CCCCC1)N1C(=O)CC(=O)N(CCc2ccc(Cl)cc2)C1=O` [Compound 46, (R)-1-(4-Chlorophenethyl)-3-(1-cyclohexylethyl)pyrimidine-2,4,6(1H,3H,5H)-trione], the “Selectivity, ratio of the IC50 values” value at CaV1.3 LTCCs [2] is >12.
As for `O=C1CC(=O)N([C@H]2C[C@H]3CC[C@@H]2C3)C(=O)N1CCc1cccc(Cl)c1` [Compound 49, 1-((1R,2S,4S)-Bicyclo[2.2.1]heptan-2-yl)-3-(3-chlorophenethyl)pyrimidine-2,4,6(1H,3H,5H)-trione], the “Selectivity, ratio of the IC50 values” value at CaV1.3 LTCCs [2] was >29.
Regarding `CC1(C)[C@@H]2CC[C@@]1(C)[C@@H](N1C(=O)CC(=O)N(CCc3cccc(Cl)c3)C1=O)C2` [Compound 53], on CaV1.3 LTCCs [2], the “binding to CaV1.3 LTCCs (in words)” value is on record as “almost no binding”. In addition, the “binding to CaV1.2 LTCCs (in words)” value on CaV1.2 LTCCs is given as “almost no binding”.
With `CC1(C)[C@@H]2CC[C@@]1(C)[C@@H](N1C(=O)CC(=O)N(CCc3ccc(Cl)cc3)C1=O)C2` [Compound 54], the “binding to CaV1.3 LTCCs (in words)” value at CaV1.3 LTCCs [2] was “almost no binding”. Also, on CaV1.2 LTCCs, the “binding to CaV1.2 LTCCs (in words)” value is “almost no binding”.
Turning to `CC1(C)[C@@H]2CC[C@H](CN3C(=O)CC(=O)N(CCc4cccc(Cl)c4)C3=O)[C@H]1C2` [Compound 55], on CaV1.3 LTCCs [2], the “binding to CaV1.3 LTCCs (in words)” value was “almost no binding”. For the same compound, at CaV1.2 LTCCs, the “binding to CaV1.2 LTCCs (in words)” value was “almost no binding”.
For the compound `CC1(C)[C@@H]2CC[C@H](CN3C(=O)CC(=O)N(CCc4ccc(Cl)cc4)C3=O)[C@H]1C2` [Compound 56], the “binding to CaV1.3 LTCCs (in words)” value at CaV1.3 LTCCs [2] was “almost no binding”. For the same compound, on CaV1.2 LTCCs, the “binding to CaV1.2 LTCCs (in words)” value is “almost no binding”.
For the compound `O=C1CC(=O)N([C@H]2CCNC2)C(=O)N1CCc1cccc(Cl)c1` [Compound 65], the “binding affinity for CaV1.3 LTCCs (in words)” value at CaV1.3 LTCCs [2] is “no binding affinity”. The “binding affinity for CaV1.2 LTCCs (in words)” value on CaV1.2 LTCCs was “no binding affinity”.
For the compound `O=C(O)[C@H]1CC[C@@H](N2C(=O)CC(=O)N(CCc3cccc(Cl)c3)C2=O)C1` [Compound 67], the “binding affinity for CaV1.3 LTCCs (in words)” value at CaV1.3 LTCCs [2] is given as “no binding affinity”. Also, the “binding affinity for CaV1.2 LTCCs (in words)” value at CaV1.2 LTCCs is on record as “no binding affinity”.
Regarding `O=C1CC(=O)N([C@H]2CCC[C@@H]2O)C(=O)N1CCc1cccc(Cl)c1` [Compound 69], the “binding affinity for CaV1.3 LTCCs (in words)” value on CaV1.3 LTCCs [2] was “no binding affinity”. Also, on CaV1.2 LTCCs, the “binding affinity for CaV1.2 LTCCs (in words)” value is “no binding affinity”.
